This experiment addresses T1, Wee1 protein (Homo sapiens, UniProt P30291).
T1 construct: purchased Thermo Fisher PR7373A
The experiment can be described thus: Binding of compound to Wee1 protein and Tracer 178 by TR-FRET (Wee1 kinase inhibitory activity). Conditions: 15 nM WEE1, 50 nM Tracer 178, read-out: IC50 (inhibitory activity against Wee1 kinase). For orientation: In TR-FRET formats the signal depends on donor and acceptor labels being close together.

T1 sequence (P30291 whole entry): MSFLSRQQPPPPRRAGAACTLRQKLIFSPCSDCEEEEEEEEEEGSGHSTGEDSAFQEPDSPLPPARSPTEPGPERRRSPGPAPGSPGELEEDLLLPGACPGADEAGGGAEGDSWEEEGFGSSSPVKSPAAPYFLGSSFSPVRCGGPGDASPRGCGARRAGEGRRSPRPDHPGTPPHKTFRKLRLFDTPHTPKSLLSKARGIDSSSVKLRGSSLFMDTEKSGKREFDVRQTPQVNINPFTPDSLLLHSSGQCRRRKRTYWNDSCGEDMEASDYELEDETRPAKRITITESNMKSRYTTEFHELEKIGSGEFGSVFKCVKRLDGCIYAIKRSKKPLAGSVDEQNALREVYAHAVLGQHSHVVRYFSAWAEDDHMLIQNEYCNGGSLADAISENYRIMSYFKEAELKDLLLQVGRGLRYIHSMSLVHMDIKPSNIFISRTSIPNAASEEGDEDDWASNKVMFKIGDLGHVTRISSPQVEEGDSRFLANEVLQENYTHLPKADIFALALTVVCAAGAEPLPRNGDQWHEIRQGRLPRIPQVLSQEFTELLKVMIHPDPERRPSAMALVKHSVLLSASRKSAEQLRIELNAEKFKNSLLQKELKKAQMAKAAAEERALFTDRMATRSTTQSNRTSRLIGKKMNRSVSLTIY

Turning to `C=CCn1c(=O)c2cnc(Nc3ccc(N4CC5CC(C4)N5C)cc3)nc2n1-c1cccc(C(C)(C)O)n1` [Compound 27], the IC50 (in general, the concentration that gives 50% inhibition) was 5 to 10 nM.

The record behind these values is US20250034151A1, “WEE1 INHIBITOR, PREPARATION THEREFOR, AND USE THEREOF” (JIANGSU TASLY DIYI PHARMACEUTICAL CO., LTD., priority 2022, published 2025).
